Measured values published in patent US12679802B2, “Malonamides and their use as herbicides” (BASF SE, priority 2021, dated 2026).

Columns and labels:
AVEFA = test: greenhouse herbicidal test, post-emergence treatment; format: in vivo, Avena fatua; details: post-emergence method, scale from 0 to 100
Description: (§1) The seeds of the test plants were sown separately for each species. For the pre-emergence treatment, the active ingredients, which had been suspended or emulsified in water, were applied directly after sowing by means of finely distributing nozzles. The containers were irrigated gently to promote germination and growth and subsequently covered with transparent plastic hoods until the test plants had rooted. This cover caused uniform germination of the test plants, unless this had been impaired by the active ingredients. For the post-emergence treatment, the test plants were first grown to a height of 3 to 15 cm, depending on the plant habit, and only then treated with the active ingredients which had been suspended or emulsified in water. For this purpose, the test plants were either sown directly and grown in the same containers, or they were first grown separately as seedlings and transplanted into the test containers a few days prior to treatment. Depending on the species, the test plants were kept at 10-25° C. or 20-35° C., respectively. The test period extended over 2 to 4 weeks. During this time, the test plants were tended, and their response to the individual treatments was evaluated. Evaluation was carried out using a scale from 0 to 100. 100 means no emergence of the test plants, or complete destruction of at least the aerial moieties, and 0 means no damage, or normal course of growth. A good herbicidal activity is given at values of 65 to 90 and a very good herbicidal activity is given at values of 90 to 100. The test plants used in the greenhouse experiments were of the following species: [table]

APESV = test: greenhouse herbicidal test, pre-emergence treatment; format: in vivo, Apera spica-venti; details: pre-emergence method, scale from 0 to 100
Description: as §1, with “100 means no emergence of the test plants, or complete destruction of at least the aerial moieties, and 0 means no damage, or normal course of growth. A good herbicidal activity is given at values of 65 to 90 and a very good herbicidal activity is given at values of 90 to 100. The test plants used in the greenhouse experiments were of the following species: [table]” left out

ECHCG [1] = test: as above; format: in vivo, Echinocloa crus-galli; details: pre-emergence method, scale from 0 to 100
Description: as §1, with “100 means no emergence of the test plants, or complete destruction of at least the aerial moieties, and 0 means no damage, or normal course of growth. A good herbicidal activity is given at values of 65 to 90 and a very good herbicidal activity is given at values of 90 to 100. The test plants used in the greenhouse experiments were of the following species: [table]” left out

ABUTH = test: greenhouse herbicidal test, post-emergence treatment; format: in vivo, Abutilon theophrasti; details: post-emergence method, application rate 0.250 kg/ha; scale from 0 to 100
Description: as §1, with “100 means no emergence of the test plants, or complete destruction of at least the aerial moieties, and 0 means no damage, or normal course of growth. A good herbicidal activity is given at values of 65 to 90 and a very good herbicidal activity is given at values of 90 to 100. The test plants used in the greenhouse experiments were of the following species: [table]” left out

ALOMY = test: as above; format: in vivo, Alopercurus myosuroides; details: post-emergence method, scale from 0 to 100
Description: as §1, with “100 means no emergence of the test plants, or complete destruction of at least the aerial moieties, and 0 means no damage, or normal course of growth. A good herbicidal activity is given at values of 65 to 90 and a very good herbicidal activity is given at values of 90 to 100. The test plants used in the greenhouse experiments were of the following species: [table]” left out

AMARE = test: as above; format: in vivo, Amaranthus retroflexus; details: post-emergence method, application rate 0.500 kg/ha; scale from 0 to 100
Description: as §1, with “100 means no emergence of the test plants, or complete destruction of at least the aerial moieties, and 0 means no damage, or normal course of growth. A good herbicidal activity is given at values of 65 to 90 and a very good herbicidal activity is given at values of 90 to 100. The test plants used in the greenhouse experiments were of the following species: [table]” left out

SETVI = test: as above; format: in vivo, Setaria viridis; details: post-emergence method, application rate 1.000 kg/ha; scale from 0 to 100
Description: as §1, with “100 means no emergence of the test plants, or complete destruction of at least the aerial moieties, and 0 means no damage, or normal course of growth. A good herbicidal activity is given at values of 65 to 90 and a very good herbicidal activity is given at values of 90 to 100. The test plants used in the greenhouse experiments were of the following species: [table]” left out

ECHCG [2] = test: as above; format: in vivo, Echinocloa crus-galli; details: post-emergence method, application rate 1.000 kg/ha; scale from 0 to 100
Description: as §1, with “100 means no emergence of the test plants, or complete destruction of at least the aerial moieties, and 0 means no damage, or normal course of growth. A good herbicidal activity is given at values of 65 to 90 and a very good herbicidal activity is given at values of 90 to 100. The test plants used in the greenhouse experiments were of the following species: [table]” left out

For `COC(=O)CCCNC(=O)C(F)(F)C(=O)Nc1cc(Cl)cc(Cl)c1` [I.1, methyl 4-[[3-(3,5-dichloroanilino)-2,2-difluoro-3-oxo-propanoyl]amino]butanoate], the “herbicidal activity against AVEFA” value (AVEFA; application rate 0.500 kg/ha) was “good (A good herbicidal activity is given at values of 65 to 90)”.
`COC(=O)C[C@H](C)NC(=O)C(F)(F)C(=O)Nc1cc(Cl)cc(Cl)c1` [I.2, methyl (3S)-3-[[3-(3,5-dichloroanilino)-2,2-difluoro-3-oxo-propanoyl]amino]butanoate] was tested, and the “herbicidal activity against APESV” value (APESV; application rate 0.500 kg/ha) was “good (A good herbicidal activity is given at values of 65 to 90)”.
`COC(=O)[C@@H]1CCC(NC(=O)C(F)(F)C(=O)Nc2cc(Cl)cc(Cl)c2)C1` (stereo partly drawn) [I.3, methyl (1R)-3-[[3-(3,5-dichloroanilino)-2,2-difluoro-3-oxo-propanoyl]amino]cyclopentanecarboxylate] was tested, and the “herbicidal activity against ECHCG” value (ECHCG [1]; application rate 0.250 kg/ha) was “good (A good herbicidal activity is given at values of 65 to 90)”, the “herbicidal activity against ABUTH” value (ABUTH) was “good (A good herbicidal activity is given at values of 65 to 90)” and the “herbicidal activity against ALOMY” value (ALOMY; application rate 0.250 kg/ha) was “very good (a very good herbicidal activity is given at values of 90 to 100)”.
With `COC(=O)C[C@H](C)NC(=O)C(F)C(=O)Nc1cc(Cl)cc(Cl)c1` (stereo partly drawn) [I.5, methyl (3S)-3-[[3-(3,5-dichloroanilino)-2-fluoro-3-oxo-propanoyl]amino]butanoate] the “herbicidal activity against ECHCG” value (ECHCG [1]; application rate 1.000 kg/ha) was “good (A good herbicidal activity is given at values of 65 to 90)”, the “herbicidal activity against ALOMY” value (ALOMY; application rate 1.000 kg/ha) was “very good (a very good herbicidal activity is given at values of 90 to 100)” and the “herbicidal activity against AVEFA” value (AVEFA; application rate 1.000 kg/ha) was “good (A good herbicidal activity is given at values of 65 to 90)”.
In the case of `COC(=O)CC(C)NC(=O)C(F)(C(=O)Nc1cc(Cl)cc(Cl)c1)C(C)O` (stereo not shown) [I.6], the “herbicidal activity against AMARE” value (AMARE) is reported as “very good (a very good herbicidal activity is given at values of 90 to 100)”.
With `COC(=O)CC(C)NC(=O)C(F)(Br)C(=O)Nc1cc(Cl)cc(Cl)c1` (stereo not shown) [I.12] the “herbicidal activity against SETVI” value (SETVI) was “very good (a very good herbicidal activity is given at values of 90 to 100)”, the “herbicidal activity against ECHCG” value (ECHCG [2]) was “very good (a very good herbicidal activity is given at values of 90 to 100)” and the “herbicidal activity against AVEFA” value (AVEFA; application rate 1.000 kg/ha) was “very good (a very good herbicidal activity is given at values of 90 to 100)”.
In the case of `CC(CC(=O)OC(C)C)NC(=O)C(C)(F)C(=O)Nc1cc(F)cc(Cl)c1` (stereo not shown) [I.16], the “herbicidal activity against APESV” value (APESV; application rate 0.250 kg/ha) is reported as “good (A good herbicidal activity is given at values of 65 to 90)”.
